# Assay results taken from patent publication US4067899A, “Terpenophenols” (Societe Anonyme dite: MAR-PHA, Societe d'Etude et …, priority 1974, dated 1978).
# Columns and labels:
# Assay in all cases: Bacteriostatic activity by the method of streaks in gelose media, minimum inhibitory concentration
# Type in all cases: cell-based
# [1] = tested on: Streptococcus Pyrogenes; details: streaks from 24 hour old culture, gram + ve, read-out: Minimal inhibitory concentration Streptococcus Pyrogenes
# Protocol: (§1) The bacteriostatic activity of the phenols according to the invention has been evaluated by the method of streaks in gelose media. This method comprises making increasing dilutions of the product to be tested, in nutritive geloses poured into a Petri dish.
# (§2) The various bacteria to be studied are then introduced onto the geloses in parallel streaks by means of a platinum loop which has been immersed in a 24 hour old culture of each bacteria.
# (§3) The activity of these compounds has been studied vis a vis two gram + ve bacteria, namely Staphylococcus Aureus and Streptococcus Pyrogenes.
# [2] = tested on: Staphylococcus Aureus; details: streaks from 24 hour old culture, gram + ve, read-out: Minimal inhibitory concentration Staphylococcus Aureus
# Protocol: as §1, §2, §3
# [3] = tested on: Escherichia Coli; details: streaks from 24 hour old culture, read-out: Minimal inhibitory concentration Escherichia Coli
# Protocol: as §1, §2
SMILES,MIC [1] [µg/mL],MIC [2] [µg/mL],MIC [3] [µg/mL]
"Cc1cc(O)c(C2CC3CCC2(C)C3(C)C)cc1[N+](=O)[O-] (centres unmarked) [Example 1, 2-isobornyl-4-nitro-5-methylphenol]",7.5,1,
"Cc1cc(O)c(C2CC3CCC2(C)C3(C)C)cc1Br (centres unmarked) [Example 2, 2-isobornyl-4-bromo-5-methyl-phenol]",15,5,
"CC1(C)C2CCC1(C)C(c1cc([N+](=O)[O-])ccc1O)C2 (centres unmarked) [Example 3, 2-isobornyl-4-nitrophenol]",5,1,
"CC1(C)C2CCC1(C)C(c1cc(Br)ccc1O)C2 (centres unmarked) [Example 4, 2-isobornyl-4-bromophenol]",30,2,
"O=[N+]([O-])c1ccc(O)c(C2CC3CCC2C3)c1 (stereo not drawn) [Example 5, 2-exo-norbornyl-4-nitrophenol]",10,5,
"CC1C2CC(CC2c2cc(Br)ccc2O)C1(C)C (centres unmarked) [Example 6, 2-isocamphyl-4-bromophenol]",5,2.5,
"Cc1cc(O)c(C2CC3CCC2(C)C3(C)C)cc1Cl (centres unmarked) [Example 7, 2-isobornyl-4-chloro-5-methylphenol]",5,2.5,
"Oc1ccc(Br)cc1C1CC2CCC1C2 (stereo not drawn) [Example 8, 2-exo-norbornyl-4-bromophenol]",20,7.5,7.5
"Cc1cc(O)c(C2CC3CCC2C3)cc1Br (stereo not drawn) [Example 9, 2-exo-norbornyl-4-bromo-5-methylphenol]",,5,20
"Oc1ccc(Cl)cc1C1CC2CCC1C2 (stereo not drawn) [Example 10, 2-exo-norbornyl-4-chlorophenol]",,5,10
"CC1(C)C2CCC1(C)C(c1cc(Cl)ccc1O)C2 (centres unmarked) [Example 11, 2-isobornyl-4-chlorophenol]",10,2.5,
"COc1cc(C)c(O)cc1C1CC2CCC1(C)C2(C)C (centres unmarked) [Example 12, 2-methyl-4-methoxy-5-isobornyl phenol]",,5,
"Cc1ccc(O)c(C2CC3CC2C(C)C3(C)C)c1 (centres unmarked) [Example 13, 2-isocamphyl-4-methylphenol]",20,5,
"COc1ccc(O)cc1C1CC2CCC1(C)C2(C)C (centres unmarked) [Example 14, 3-isobornyl-4-methoxyphenol]",10,5,
"Cc1cc(O)c(C2CC3CCC2(C)C3(C)C)cc1C#N (centres unmarked) [Example 15, 2-isobornyl-4-cyano-5-methylphenol]",10,5,
"CC1(C)C2CCC1(C)C(c1cc(C#N)ccc1O)C2 (centres unmarked) [Example 16, 2-isobornyl-4-cyano phenol]",7.5,5,
